Reference: patent publication US9920096B2, “Bradykinin receptor modulators and use thereof” (Sepia Pesquisa e Desenvolvimento, priority 2013, dated 2018)

Tests used:
[1] = system: HUVEC cells; test: Intracellular calcium measurement in HUVEC cells (Fluo-3 fluorescence); assay type: cell-based, Human; details: for Bradykinin receptor activity indicated by calcium entry data: FIG. 5A-E, with and without B1/B2 antagonists
Protocol: The intracellular calcium measurement was performed according to the method described in Bagnaresi P et al, 2012 and Lungato L, et al., 2012.
Human umbilical vein endothelial cells were cultured in RPMI 1640 (GIBCO) containing 10% heat-inactivated fetal bovine serum (FBS), 24 mM sodium bicarbonate, […] gentamicin, 10 mM HEPES, pH 7.4 at 37° C. in a 5% CO2 humidified atmosphere. 5×10^4 cells were plated on 60 mm dishes (Costar 3260), and incubated in culture medium containing 5 μM Fluo-3 AM (Invitrogen Corporation, CA) for 40 min at 37° C. in a buffer containing the channel blocker Probenecid (40 μM), followed by 3 washes with culture medium to discard remaining extracellular probe. The cells were then placed into a culture chamber at 37° C. on the stage of a fluorescence microscope (Zeiss LSM 510 META) with excitation at 488 nm and emission at 505-530 nm. After calcium probe incubation, assays were performed with 1 uM bradykinin (BK), 10 uM PepD 2-10.
Fluorescence data were normalized as F/Fmax, where Fmax represents maximal intracellular fluorescence obtained with Ca2+ released from ER with addition of THG, a Ca2+ATPase inhibitor (Bagnaresi et al. 2012). THG blocks calcium pumps that recover cytosolic calcium from the cytoplasm. Under the action of THG the cytosolic calcium reaches its maximal concentration.
The software-based analysis allowed fluorescence imaging in the whole field or in a selected cell as a function of time (Image J 1.47h, NIH, USA). This was accomplished by defining areas of interest (e.g., an entire cell) on a given image frame and directing the software to construct a graphical representation of intensity over time (GraphPad Software 6 Prisma). Individual traces for typical 15 cells responses represent the intracellular calcium fluorescence changes in the analyzed cell population (Lungato et al. 2012).

[2] = system: Human umbilical vein endothelial cells (HUVEC); test: In vitro angiogenesis assay on Matrigel (HUVEC); assay type: cell-based
Protocol: The angiogenesis assay was performed according to the protocol described in Paschoalin T, et al (2007).
Human umbilical vein endothelial cells (HUVEC) were maintained in complete RPMI 1640 medium, pH 7.2, supplemented with 10 mM N-2-hydroxyethylpiperazine-N′-2-ethanesulphonic acid (HEPES), 24 mM sodium bicarbonate, 10% heat-inactivated fetal calf serum (FCS) from Gibco (Minneapolis, Minn., USA) and 40 μg/mL gentamicin sulfate (Hipolabor Farmacéutica, Sabará, MG, Brazil).
In vitro angiogenesis assay on Matrigel was performed as described previously (Paschoalin et al, 2007). Briefly, BD Matrigel Matrix (B&D Biosciences, Bedford, Mass., USA) was thawed on ice, distributed in 96-well plates (50 μL per well) and allowed to polymerize for 1 h at 37° C. HUVECs (15×10^3 cells/well) were suspended in 100 μL of RPMI medium supplemented with 2% of FCS and added to each well in the presence of peptides with possible angiogenic activity. Angiogenic stimulators and inhibitors can be incubated with the cells before adding on the Matrigel if necessary. The plates were incubated at 37° C. for 18 h and then images were captured at 8× magnification with a Sony Cyber-shot camera coupled to a light inverted microscope. The number of pro-angiogenic structures (closed rings arising from dendritic extensions of endothelial cells) was counted from 4 different wells, and the average value was determined for each sample.
When stimulated by angiogenic factors, like BK, HUVEC cells undergo the development of pro-angiogenic structures and it allows studying angiogenic or anti-angiogenic molecules. The number of pro-angiogenic structures is counted and compared to a control and to BK. Generally, peptides of the invention derived from VEGF-A were named PepA, peptides from VEGF-C were named PepC, peptides from VEGF-D were named PepD and peptides from Placental Growth Factor were named PepPl.
* p<0.05, Student's “t” test, when comparing the mean number of pro-angiogenic structures from […] different wells of HUVEC cultures to the control.

[3] = FIG. 2 and 3, peptide at 10 μM, compared to BK 1 μM and control without peptide
[4] = FIG. 5E, peptide 10 μM, in the presence of B1 receptor antagonist DesArg9-Leu8-BK
[5] = FIG. 4A/4B, 1 μM and 10 μM, 24 h after initial stimulus

KPPCVNVFR [PepD 2-10, derived from VEGF-D]
Bradykinin receptor activity indicated by calcium entry data ([1]; peptide 10 μM): B2 agonist
Bradykinin receptor activity indicated by calcium entry data ([1]; peptide 10 μM, listed as PepD2-10): B1 bradykinin receptor activation
Cytoplasmic calcium in HUVEC (Fluo-3 fluorescence) ([1]; FIG. 5B, peptide 10 μM): induces an increase of cytoplasmatic calcium
Calcium entry induced by the peptide after previous addition of B2 receptor antagonist HOE140 ([1]; FIG. 5C, HOE 140 10 μM for 10 min before peptide 10 μM): does not block calcium entry but clearly shows a disruption in the pattern of calcium increase
Calcium entry induced by the peptide after previous addition of B1 receptor antagonist DesArg9-Leu8-BK ([1]; FIG. 5D, DesArg9-Leu8-BK 10 μM for 10 min before peptide 10 μM): completely blocks the effect of PepD 2-10
Effect on HUVEC angiogenesis assay (number of pro-angiogenic structures) ([2]; FIG. 1, tested at 1 μM, 10 μM and 50 μM, effect at 1 and 10 μM, compared to control): pro-angiogenic effect
Induction of angiogenesis in HUVEC angiogenesis assay [2, 3]: able to induce angiogenesis

FKPPCVSVYR [PepC 1-10, derived from VEGF-C]
Induction of angiogenesis in HUVEC angiogenesis assay ([2]; FIG. 4C, 0.1, 1.0 and 10 μM, 24 h after initial stimulus): able to induce angiogenesis

FKPPCVNVF [PepD 1-9, derived from VEGF-D]
Induction of angiogenesis in HUVEC angiogenesis assay [2, 3]: able to induce angiogenesis

FKPPCVNVFR [PepD 1-10, derived from VEGF-D]
Induction of angiogenesis in HUVEC angiogenesis assay [2, 3]: able to induce angiogenesis

KPSCVPLM [PepA 2-9, derived from VEGF-A]
Induction of angiogenesis in HUVEC angiogenesis assay [2, 3]: able to induce angiogenesis

FSPSCVSLLR [PepPl 1-10, derived from Placental Growth Factor]
Cell fluorescence due to calcium entry in the cytoplasm of HUVEC [1, 4]: induces an increase in cell fluorescence
Duration of transient fluorescence increase (cytoplasmic calcium increase) [1, 4]: around 5 minutes

KPPCVSVY [PepC 2-9, derived from VEGF-C]
Induction of angiogenesis in HUVEC angiogenesis assay [2, 5]: able to induce angiogenesis

KPPCVSVYR [PepC 2-10, derived from VEGF-C]
Induction of angiogenesis in HUVEC angiogenesis assay [2, 5]: able to induce angiogenesis

FKPSCVPLM [PepA 1-9, derived from VEGF-A]
Induction of angiogenesis in HUVEC angiogenesis assay [2, 3]: able to induce angiogenesis
